Source: US9029325B2, “Amylin analogues and pharmaceutical compositions thereof” (Novo Nordisk A/S, priority 2011, dated 2015)
Starred links: 1 amine or outer side, 2 acyl side, 3 side chain; linkers in the order of their positions; H or OH if unused. Positions of bridges follow the written chain, without caps; N, C: chain ends. Residues, ends and D or L forms follow the SMILES beside them. *: point of attachment. C20 diacid = O=C(O)CCCCCCCCCCCCCCCCCCC(=O)*; C18 diacid = O=C(O)CCCCCCCCCCCCCCCCC(=O)*; γGlu = O=C(O)[C@H](CCC(=O)[*:2])N[*:1]

Test: Assay (I) efficacy testing on appetite (food intake), ad libitum fed rat model
Assay type: in vivo, Sprague Dawley (SD) rats
Conditions: 3 nmol/kg
How it was run: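 Ad libitum fed SD rats (200-250 g) on a reversed light cycle, housed individually, received a single 0.01-3 mg/kg dose ip, po or sc just before lights-off. Individual food intake recorded hourly for 7 h, then at 24 h and sometimes 48 h, versus vehicle; Grubbs outliers excluded.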

In the case of `CC[C@H](C)[C@H](NC(=O)[C@@H]1CCCN1C(=O)CNC(=O)[C@H](Cc1ccccc1)NC(=O)[C@H](CC(N)=O)NC(=O)[C@H](CC(N)=O)NC(=O)[C@H](CO)NC(=O)[C@H](CO)NC(=O)[C@H](Cc1c[nH]cn1)NC(=O)[C@H](Cc1c[nH]cn1)NC(=O)[C@H](CC(C)C)NC(=O)[C@H](Cc1ccccc1)NC(=O)[C@H](CCC(=O)O)NC(=O)[C@H](C)NC(=O)[C@H](CC(C)C)NC(=O)[C@H](CCCNC(=N)N)NC(=O)[C@H](CCC(N)=O)NC(=O)[C@@H](NC(=O)[C@H](C)NC(=O)[C@@H]1CSSC[C@H](NC(=O)[C@H](Cc2c[nH]cn2)NC(=O)[C@H](Cc2c[nH]cn2)NC(=O)[C@H](Cc2c[nH]cn2)NC(=O)CC[C@H](NC(=O)CCCCCCCCCCCCCCCCCCC(=O)O)C(=O)O)C(=O)N[C@@H](CCCNC(=N)N)C(=O)N[C@@H]([C@@H](C)O)C(=O)N[C@@H](C)C(=O)N[C@@H]([C@@H](C)O)C(=O)N1)[C@@H](C)O)C(=O)N[C@@H](CC(C)C)C(=O)N1CCC[C@H]1C(=O)N1CCC[C@H]1C(=O)N[C@H](C(=O)N[C@@H](CC(N)=O)C(=O)N[C@H](C(=O)NCC(=O)N[C@@H](CO)C(=O)N[C@@H](CC(N)=O)C(=O)N[C@H](C(=O)N[C@@H](Cc1ccc(O)cc1)C(N)=O)[C@@H](C)O)C(C)C)[C@@H](C)O` [compound 22] ({C20 diacid-γGlu}-HHHCRTATCATQRLAEFLHHSSNNFGPILPPTNVGSNTY-NH2; disulfide 4-9 (inferred); C-terminus assumed), the “Food intake reduction 0-24 h 3 nmol/kg (%)” value is reported as 26% and the “Food intake reduction 24-48 h 3 nmol/kg (%)” value is reported as 5%.

With `CC[C@H](C)[C@H](NC(=O)[C@@H]1CCCN1C(=O)CNC(=O)[C@H](Cc1ccccc1)NC(=O)[C@H](CC(N)=O)NC(=O)[C@H](CC(N)=O)NC(=O)[C@H](CO)NC(=O)[C@H](CO)NC(=O)[C@H](Cc1c[nH]cn1)NC(=O)[C@H](Cc1c[nH]cn1)NC(=O)[C@H](CC(C)C)NC(=O)[C@H](Cc1ccccc1)NC(=O)[C@H](CCC(=O)O)NC(=O)[C@H](C)NC(=O)[C@H](CC(C)C)NC(=O)[C@H](CCCNC(=N)N)NC(=O)[C@H](CCC(N)=O)NC(=O)[C@@H](NC(=O)[C@H](C)NC(=O)[C@@H]1CSSC[C@H](NC(=O)[C@H](CCCCN)NC(=O)[C@H](CCC(=O)O)NC(=O)CC[C@H](NC(=O)CCCCCCCCCCCCCCCCCCC(=O)O)C(=O)O)C(=O)N[C@@H](CC(N)=O)C(=O)N[C@@H]([C@@H](C)O)C(=O)N[C@@H](C)C(=O)N[C@@H]([C@@H](C)O)C(=O)N1)[C@@H](C)O)C(=O)N[C@@H](CC(C)C)C(=O)N1CCC[C@H]1C(=O)N1CCC[C@H]1C(=O)N[C@H](C(=O)N[C@@H](CC(N)=O)C(=O)N[C@H](C(=O)NCC(=O)N[C@@H](CO)C(=O)N[C@@H](CC(N)=O)C(=O)N[C@H](C(=O)N[C@@H](Cc1ccc(O)cc1)C(N)=O)[C@@H](C)O)C(C)C)[C@@H](C)O` [compound 26] ({C20 diacid-γGlu}-EKCNTATCATQRLAEFLHHSSNNFGPILPPTNVGSNTY-NH2; disulfide 3-8) the “Food intake reduction 0-24 h 3 nmol/kg (%)” value was 46% and the “Food intake reduction 24-48 h 3 nmol/kg (%)” value was 39%.

With `CC[C@H](C)[C@H](NC(=O)[C@@H]1CCCN1C(=O)CNC(=O)[C@H](Cc1ccccc1)NC(=O)[C@H](CC(N)=O)NC(=O)[C@H](CC(N)=O)NC(=O)[C@H](CO)NC(=O)[C@H](CO)NC(=O)[C@H](Cc1c[nH]cn1)NC(=O)[C@H](Cc1c[nH]cn1)NC(=O)[C@H](CC(C)C)NC(=O)[C@H](Cc1ccccc1)NC(=O)[C@H](CCC(=O)O)NC(=O)[C@H](C)NC(=O)[C@H](CC(C)C)NC(=O)[C@H](CCCNC(=N)N)NC(=O)[C@H](CCC(N)=O)NC(=O)[C@@H](NC(=O)[C@H](C)NC(=O)[C@@H]1CSSC[C@H](NC(=O)CC[C@H](NC(=O)CCCCCCCCCCCCCCCCCCC(=O)O)C(=O)O)C(=O)N[C@@H](CC(N)=O)C(=O)N[C@@H]([C@@H](C)O)C(=O)N[C@@H](C)C(=O)N[C@@H]([C@@H](C)O)C(=O)N1)[C@@H](C)O)C(=O)N[C@@H](CC(C)C)C(=O)N1CCC[C@H]1C(=O)N1CCC[C@H]1C(=O)N[C@H](C(=O)N[C@@H](CC(N)=O)C(=O)N[C@H](C(=O)NCC(=O)N[C@@H](CO)C(=O)N[C@@H](CC(N)=O)C(=O)N[C@H](C(=O)N[C@@H](Cc1ccc(O)cc1)C(N)=O)[C@@H](C)O)C(C)C)[C@@H](C)O` [compound 28] ({C20 diacid-γGlu}-CNTATCATQRLAEFLHHSSNNFGPILPPTNVGSNTY-NH2; disulfide 1-6 (inferred); C-terminus assumed) the “Food intake reduction 0-24 h 3 nmol/kg (%)” value was 39% and the “Food intake reduction 24-48 h 3 nmol/kg (%)” value was 36%.

For `CC[C@H](C)[C@H](NC(=O)[C@@H]1CCCN1C(=O)CNC(=O)[C@H](Cc1ccccc1)NC(=O)[C@H](CC(N)=O)NC(=O)[C@H](CC(N)=O)NC(=O)[C@H](CO)NC(=O)[C@H](CO)NC(=O)[C@H](Cc1c[nH]cn1)NC(=O)[C@H](Cc1c[nH]cn1)NC(=O)[C@H](CC(C)C)NC(=O)[C@H](Cc1ccccc1)NC(=O)[C@H](CCC(=O)O)NC(=O)[C@H](C)NC(=O)[C@H](CC(C)C)NC(=O)[C@H](CCCNC(=N)N)NC(=O)[C@H](CCC(N)=O)NC(=O)[C@@H](NC(=O)[C@H](C)NC(=O)[C@@H]1CSSC[C@H](NC(=O)[C@H](CCC(=O)O)NC(=O)CC[C@H](NC(=O)CCCCCCCCCCCCCCCCCCC(=O)O)C(=O)O)C(=O)N[C@@H](CC(N)=O)C(=O)N[C@@H]([C@@H](C)O)C(=O)N[C@@H](C)C(=O)N[C@@H]([C@@H](C)O)C(=O)N1)[C@@H](C)O)C(=O)N[C@@H](CC(C)C)C(=O)N1CCC[C@H]1C(=O)N1CCC[C@H]1C(=O)N[C@H](C(=O)N[C@@H](CC(N)=O)C(=O)N[C@H](C(=O)NCC(=O)N[C@@H](CO)C(=O)N[C@@H](CC(N)=O)C(=O)N[C@H](C(=O)N[C@@H](Cc1ccc(O)cc1)C(N)=O)[C@@H](C)O)C(C)C)[C@@H](C)O` [compound 29] ({C20 diacid-γGlu}-ECNTATCATQRLAEFLHHSSNNFGPILPPTNVGSNTY-NH2; disulfide 2-7), the “Food intake reduction 0-24 h 3 nmol/kg (%)” value was 15% and the “Food intake reduction 24-48 h 3 nmol/kg (%)” value was 5%.

In the case of `CC[C@H](C)[C@H](NC(=O)[C@@H]1CCCN1C(=O)CNC(=O)[C@H](Cc1ccccc1)NC(=O)[C@H](CC(N)=O)NC(=O)[C@H](CC(N)=O)NC(=O)[C@H](CO)NC(=O)[C@H](CO)NC(=O)[C@H](Cc1c[nH]cn1)NC(=O)[C@H](Cc1c[nH]cn1)NC(=O)[C@H](CC(C)C)NC(=O)[C@H](Cc1ccccc1)NC(=O)[C@H](CCC(=O)O)NC(=O)[C@H](C)NC(=O)[C@H](CC(C)C)NC(=O)[C@H](CCCNC(=N)N)NC(=O)[C@H](CCC(N)=O)NC(=O)[C@@H](NC(=O)[C@H](C)NC(=O)[C@@H]1CSSC[C@H](NC(=O)[C@H](CCCCN)NC(=O)CC[C@H](NC(=O)CCCCCCCCCCCCCCCCC(=O)O)C(=O)O)C(=O)N[C@@H](CC(N)=O)C(=O)N[C@@H]([C@@H](C)O)C(=O)N[C@@H](C)C(=O)N[C@@H]([C@@H](C)O)C(=O)N1)[C@@H](C)O)C(=O)N[C@@H](CC(C)C)C(=O)N1CCC[C@H]1C(=O)N1CCC[C@H]1C(=O)N[C@H](C(=O)N[C@@H](CC(N)=O)C(=O)N[C@H](C(=O)NCC(=O)N[C@@H](CO)C(=O)N[C@@H](CC(N)=O)C(=O)N[C@H](C(=O)N[C@@H](Cc1ccc(O)cc1)C(N)=O)[C@@H](C)O)C(C)C)[C@@H](C)O` [compound 46] ({C18 diacid-γGlu}-KCNTATCATQRLAEFLHHSSNNFGPILPPTNVGSNTY-NH2; disulfide 2-7 (inferred); C-terminus assumed), the “Food intake reduction 0-24 h 3 nmol/kg (%)” value is reported as 54% and the “Food intake reduction 24-48 h 3 nmol/kg (%)” value is reported as 27%.

With `CC[C@H](C)[C@H](NC(=O)[C@@H]1CCCN1C(=O)CNC(=O)[C@H](Cc1ccccc1)NC(=O)[C@H](CC(N)=O)NC(=O)[C@H](CC(N)=O)NC(=O)[C@H](CO)NC(=O)[C@H](CO)NC(=O)[C@H](Cc1c[nH]cn1)NC(=O)[C@H](CCCNC(=N)N)NC(=O)[C@H](CC(C)C)NC(=O)[C@H](Cc1ccccc1)NC(=O)[C@H](CCC(=O)O)NC(=O)[C@H](C)NC(=O)[C@H](CC(C)C)NC(=O)[C@H](CCCNC(=N)N)NC(=O)[C@H](CCC(N)=O)NC(=O)[C@@H](NC(=O)[C@H](C)NC(=O)[C@@H]1CSSC[C@H](NC(=O)[C@H](CCCCN)NC(=O)CC[C@H](NC(=O)CCCCCCCCCCCCCCCCCCC(=O)O)C(=O)O)C(=O)N[C@@H](CC(N)=O)C(=O)N[C@@H]([C@@H](C)O)C(=O)N[C@@H](C)C(=O)N[C@@H]([C@@H](C)O)C(=O)N1)[C@@H](C)O)C(=O)N[C@@H](CC(C)C)C(=O)N1CCC[C@H]1C(=O)N1CCC[C@H]1C(=O)N[C@H](C(=O)N[C@@H](CC(N)=O)C(=O)N[C@H](C(=O)NCC(=O)N[C@@H](CO)C(=O)N[C@@H](CC(N)=O)C(=O)N[C@H](C(=O)N[C@@H](Cc1ccc(O)cc1)C(N)=O)[C@@H](C)O)C(C)C)[C@@H](C)O` [compound 50] ({C20 diacid-γGlu}-KCNTATCATQRLAEFLRHSSNNFGPILPPTNVGSNTY-NH2; disulfide 2-7 (inferred); C-terminus assumed) the “Food intake reduction 0-24 h 3 nmol/kg (%)” value was 30% and the “Food intake reduction 24-48 h 3 nmol/kg (%)” value was 8%.

For `CC[C@H](C)[C@H](NC(=O)[C@@H]1CCCN1C(=O)CNC(=O)[C@H](Cc1ccccc1)NC(=O)[C@H](CC(N)=O)NC(=O)[C@H](CC(N)=O)NC(=O)[C@H](CO)NC(=O)[C@H](CO)NC(=O)[C@H](Cc1c[nH]cn1)NC(=O)[C@H](Cc1c[nH]cn1)NC(=O)[C@H](CC(C)C)NC(=O)[C@H](Cc1ccccc1)NC(=O)[C@H](CCC(=O)O)NC(=O)[C@H](C)NC(=O)[C@H](CC(C)C)NC(=O)[C@H](CCCNC(=N)N)NC(=O)[C@H](CCC(N)=O)NC(=O)[C@@H](NC(=O)[C@H](C)NC(=O)[C@@H]1CSSC[C@H](NC(=O)[C@H](CCCCN)NC(=O)[C@H](CCC(=O)O)NC(=O)CC[C@H](NC(=O)CCCCCCCCCCCCCCCCCCC(=O)O)C(=O)O)C(=O)N[C@@H](CC(N)=O)C(=O)N[C@@H]([C@@H](C)O)C(=O)N[C@@H](C)C(=O)N[C@@H]([C@@H](C)O)C(=O)N1)[C@@H](C)O)C(=O)N[C@@H](CC(C)C)C(=O)N1CCC[C@H]1C(=O)N1CCC[C@H]1C(=O)N[C@H](C(=O)N[C@@H](CC(N)=O)C(=O)N[C@H](C(=O)NCC(=O)N[C@@H](CO)C(=O)N[C@@H](Cc1c[nH]cn1)C(=O)N[C@H](C(=O)N[C@@H](Cc1ccc(O)cc1)C(N)=O)[C@@H](C)O)C(C)C)[C@@H](C)O` [compound 56] ({C20 diacid-γGlu}-EKCNTATCATQRLAEFLHHSSNNFGPILPPTNVGSHTY-NH2; disulfide 3-8), the “Food intake reduction 0-24 h 3 nmol/kg (%)” value was 46% and the “Food intake reduction 24-48 h 3 nmol/kg (%)” value was 21%.
